This note sets out measurements from patent US6300347A, “2-substituted 4,5-diaryl imidazoles” (Novartis AG, priority 1997, dated 2001).

One experiment concerns TNF-α. The experiment in a line: Assay for Inhibition of TNF-α Production in LPS Stimulated Mice. The note with it: LPS 20 mg/kg i.v.; OF1 mice (female); plasma TNF 1 hour after LPS. It is filed as in vivo. The procedure:
Assay for Inhibition of TNF-α Production in LPS Stimulated Mice
Injection of lipopolysaccharide (LPS) induces a rapid release of soluble tumour necrosis factor (TNF-α) into the periphery. This model is be used to analyse prospective blockers of TNF release in vivo.
LPS (20 mg/kg) is injected i.v. into OF1 mice (female, 8 week old). One (1) hour later blood is withdrawn from the animals and TNF levels are analysed in the plasma by an ELISA method using an antibody to TNF-α. […] Compounds to be evaluated are given either orally or s.c. 1 to 4 hours prior to the LPS injection. Inhibition of LPS-induced TNF-release is taken as the readout.

The target of a further experiment is T1, p38 MAP kinase (Mus musculus, UniProt P47811).
T1 construct: full length murine p38 MAP kinase; His tag; made in house; host or cells: E. coli
Kind of experiment: p38 MAP kinase Assay (GST-ATF-2 phosphorylation, His-p38 MAP kinase). It is filed as biochemical, murine. As to conditions: ATP 120 μM; substrate GST-ATF-2; 1 h at 37° C; read-out: IC50 for p38 MAP kinase inhibition.

Experiment [1] has as its system TNF-α release from hPBMCs. Kind of experiment: Assay for Inhibition of TNF-α release from hPBMCs. In kind it is cell-based. The note with it: Homo sapiens, 3 h, IFNg (100 U/ml) and LPS, three hours, TNF-α by ELISA, read-out: IC50, suppression of TNF release. A general note: In an ELISA, binding on a coated surface is turned into a signal by an enzyme label.
Protocol: Human peripheral blood mononuclear cells (hPBMCs) are prepared from the peripheral blood of healthy volunteers using ficoll-hypaque density separation accordinc to the method of Hansel et al., J. Imm. […] Cells are incubated with serial dilutions of the test compounds for 30 minutes at 37° C. prior to the addition of IFNg (100 U/ml) and LPS (5 mg/ml) and subsequently further incubated for three hours. Incubation is terminated by centrifugation at 1400 RPM for 10 min. TNF-α in the supernatant is measured using a commercial ELISA (Innotest hTNFa, available from Innogenetics N.V., Zwijnaarde, Belium). Agents of the Invention are tested at concentrations of from 0 to 10 mM.

T1 sequence (P47811 whole entry): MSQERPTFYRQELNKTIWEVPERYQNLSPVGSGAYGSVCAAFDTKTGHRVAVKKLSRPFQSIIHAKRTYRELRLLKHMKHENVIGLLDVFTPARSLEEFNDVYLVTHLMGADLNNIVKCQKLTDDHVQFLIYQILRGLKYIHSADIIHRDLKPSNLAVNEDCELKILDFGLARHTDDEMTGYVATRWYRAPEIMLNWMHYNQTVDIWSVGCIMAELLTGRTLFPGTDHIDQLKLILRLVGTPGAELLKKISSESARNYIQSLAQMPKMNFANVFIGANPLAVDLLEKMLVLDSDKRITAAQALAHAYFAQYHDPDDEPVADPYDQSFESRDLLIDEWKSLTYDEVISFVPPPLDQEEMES
Protocol for p38 MAP kinase: The substrate (GST-ATF-2; a fusion protein comprising amino acids 1-109 of ATF-2 and the GST protein obtained by expression in E. coli) is coated onto the wells of microtiter plates (50 μl/well; 1 μg/ml in PBS/0.02% Na azide) overnight at 4° C. The following day, the microtiter plates are washed four times with PBS/0.5% Tween 20/0.02% Na azide and are blocked with PBS/2% BSA/0.02% Na Azide for 1 h at 37° C. Plates are washed again 4 times with PBS/0.5% Tween 20/0.02% Na azide. The kinase cascade reaction is then started by adding the following reactants in 10 μl aliquots to a final reaction volume of 50 μl.
1. Agents of the Invention titrated from 10 to 0.001 μM in 10-fold dilutions or solvent (DMSO) or H2 O.
2. Kinase buffer (5×); pH 7.4; 125 mM Hepes (Stock at 1M; Gibco #15630-056). […]
After 1 h at 37° C. the kinase reaction is terminated by washing the plates four times as previously described. Phosphorylated GST-ATF-2 is then detected by adding: […]
After step 1,2 and 3 the microtiter plates are washed four times with PBS/0.5% Tween 20/0.02% Na azide. After step 4, the plates are read in a Bio-Rad microplate reader in a dual wavelength mode (measurement filter 405 nm and reference filter 490 nm). The background value (without ATP) is subtracted and IC50 values are calculated using the Origin computer program (4 parameter logistic function).

A word on the IC50: it is the concentration at which inhibition is half-maximal. Consider `Nc1nc(N)c(F)c(-c2nc(-c3ccc(F)cc3)c(-c3ccncc3)[nH]2)c1F` [Example 17, 4-(4-Fluorophenyl)-5-(4-pyridyl) 2-(2,6-diamino-3,5-difluoropyridinyl)imidazole], for which, in the experiment with TNF-α, the “inhibition of TNF production” value is “about 80%”. Also, the IC50 was around 0.01 µM at p38 MAP kinase and around 0.09 µM in experiment [1].
